Source: patent US20220387433A1, “TYPE V PHOSPHODIESTERASE INHIBITOR COMPOSITIONS, METHODS OF MAKING THEM AND METHODS OF USING THEM IN PREVENTING OR TREATING ELEVATED PULMONARY VASCULAR PRESSURE OR PULMONARY HEMORRHAGES” (American Regent, Inc., priority 2019, published 2022)

Tests used:
[1] = Pharmacokinetic study, plasma and urine concentrations; assay type: in vivo, horses
Procedure: A pharmacokinetic (PK) study was conducted in six horses, namely three mares, two geldings and one stallion. The study measured plasma and urine concentrations of E-4021 (EIPHISOL®) after IV administration of 100 mg of E-4021 per horse. Plasma samples were collected pretreatment and then at 10, 20 and 30 minutes and 1, 1.5, 2, 2.5, 3, 3.5, 4, 4.5, 5, 5.5, 6, 8, 12, 17, 24 and 30 hours post administration. […] The mean area under the concentration-time curve extrapolated to infinity (AUC0-∞) was 217±83.5 hr*ng/mL. The mean volume of distribution (V) was 6.06±3.99 L/kg.
Urine was collected for assaying E-4021 during four intervals: (1) a pre-dose sample collected from approximately −24 hours through 0 hours, (2) a 0 hour to 12 hour post-dose sample, (3) a 12 hour to 24 hour post-dose sample, and, (4) a 24 hour to 36 hour-post dose sample. There was wide variability in the concentration of E-4021 measured in urine, with maximum concentration ranging from 130-974 ng/mL. […] E-4021 concentration in urine remained above the quantitation limit (3 ng/mL) for four of the six horses at 36 hours post-dose.

horses = test: Target Animal Safety (TAS) study / toxicity of formulations in horses; assay type: in vivo; details: E-4021 containing meglumine, compared to E-4021 containing propylene glycol
From the text: The drug product vehicle contains about 35-45 wt % alcohol, 46 wt % propylene glycol and 10 wt % WFI. […] Test doses (in horses) with the vehicle confirmed that the dose toxicity was due to the vehicle. More specifically, propylene glycol was believed to be the cause of toxicity.

exercising horses = test: Simulated race test (SRT) on high-speed treadmill; assay type: in vivo
mature, healthy horses = test: Twenty-four week (6-month) target animal safety (TAS) study; assay type: in vivo
Procedure: A twenty-four week (6-month) target animal safety (TAS) study was conducted to evaluate the safety of E-4021 (EIPHISOL®) in mature, healthy horses. The study was designed with 4 treatment groups of eight horses (two geldings, two stallions and four mares) in each group. Treatment groups included a Control (Group I: Isotonic saline at a volume equivalent to the largest volume given in the 5× (Group IV); 1× (Group II: 0.125 mg E4021 per pound body weight); 3× (Group III: 0.375 mg E4021 per pound body weight; and 5× (Group IV: 0.625 mg E4021 per pound body weight). Treatment groups were dosed intravenously alternating between the left and right jugular vein once every 7 days for 25 doses.
Breeds represented in this study included Thoroughbred, Quarter Horse, Paint, Arabian, and Grade. The overall age ranged from 3 to 17 years, with a mean of 7.6±4.49 years. The majority of the horses were Thoroughbred (59.4%).
Physical Examinations and Post-Dose Observations: Post-dose observations were conducted after every treatment to detect any acute abnormalities at 10-, 30-, and 60-minute intervals. […] As all groups (including the controls) recorded this finding (Table I), it is presumed that a factor other than the test article was responsible.

[2] = 100 mg (15005, meglumine) 90 min prior to SRT
[3] = 100 mg (16006, meglumine), 90 min., 4 hrs., 24 hrs. and 48 hrs. post-injection
[4] = males in Group II (1×) and Group III (3×)
[5] = males in Group III (3×) and Group IV (5×)

Substance: sodium 1-[6-chloro-4-(3,4-methylenedioxybenzyl)-aminoquinazolin-2-yl]piperidine-4-carboxylate sesquihydrate [E-4021]
- Mean clearance (CL) ([1]; IV 100 mg per horse): 19.5 ± 11.5 mL/min/kg
- Mean volume of distribution (V) ([1]; IV 100 mg per horse): 6.06 ± 3.99 L/kg
- Maximum concentration in urine ([1]; IV 100 mg per horse, range over six horses): 130 to 974 ng/mL
- Concentration in urine at 36 hours post-dose ([1]; above quantitation limit for four of the six horses): > 3 ng/mL
- Collection interval of maximum urine concentration ([1]; all six horses): 12-hour post-dose collection
- Mean Tmax ([1]; plasma, IV 100 mg per horse): 0.195 ± 0.020 h
- Mean area under the concentration-time curve extrapolated to infinity (AUC0-∞) ([1]; plasma, IV 100 mg per horse): 217 ± 83.5 ng·h/mL
- Mean elimination half-life (T½) ([1]; plasma, IV 100 mg per horse): 4.42 ± 2.91 h
- Mean maximum concentration (Cmax) ±SD ([1]; plasma, IV 100 mg per horse, six horses): 295 ± 118 ng/mL
- Renal toxicity or blood in the urine (horses): did not have renal toxicity or blood in the urine
- Oxygen uptake compared to control (exercising horses; [2]): not significantly different
- PAsO2 compared to control (exercising horses; [2]): not significantly different
- Plasma lactate compared to control (exercising horses; [2]): not significantly different
- Duration of pulmonary artery pressure reduction effect (exercising horses; 100 mg (16006, containing meglumine), post-injection for SRT): at least 24 hours
- Oxygen uptake compared to control (exercising horses; [3]): not significantly different
- PAsO2 compared to control (exercising horses; [3]): not significantly different
- Plasma lactate compared to control (exercising horses; [3]): not significantly different
- PA pressure during exercise, comparison of doses and times (exercising horses; 100 mg dose given 90 minutes prior to exercise, propylene glycol formulation, P<0.05): lowest PA pressure
- Pulmonary artery pressures during intense exercise (exercising horses; IV, propylene glycol formulation of Table 1, Phase II and III, most apparent at 2-minute point of high intensity run): substantially and significantly lower
- Effect on VO2 (exercising horses; SRTs in Phase II and Phase III): no effect
- Pulmonary artery pressure after exercise at 48 hours (exercising horses; about 100 mg E-4021 containing meglumine (FIG. 21)): lower than the control
- Pulmonary artery pressure compared to control (exercising horses; single dose 100 mg (15005, meglumine formulation of Table 3) 90 minutes prior to SRT): reduces
- Visual findings ataxia/dragging toes or behavioral/sedation, counted once per horse per group (mature, healthy horses; 1X, PE Day 0): 6
- Visual findings ataxia/dragging toes or behavioral/sedation, counted once per horse per group (mature, healthy horses; 1X, PE Day 28): 4
- Visual findings ataxia/dragging toes or behavioral/sedation, counted once per horse per group (mature, healthy horses; 1X, PE Day 56): 2
- Visual findings ataxia/dragging toes or behavioral/sedation, counted once per horse per group (mature, healthy horses; 1X, PE Day 84): 1
- Visual findings ataxia/dragging toes or behavioral/sedation, counted once per horse per group (mature, healthy horses; 1X, PE Day 112): 1
- Visual findings ataxia/dragging toes or behavioral/sedation, counted once per horse per group (mature, healthy horses; 1X, PE Day 140): 1
- Visual findings ataxia/dragging toes or behavioral/sedation, counted once per horse per group (mature, healthy horses; 1X, PE Day 168): 1
- Physical examination findings, treatment-related (mature, healthy horses; 1× and 3×): no major abnormal physical examination findings
- Visual findings ataxia/dragging toes or behavioral/sedation, counted once per horse per group (mature, healthy horses; 3X, PE Day 0): 2
- Visual findings ataxia/dragging toes or behavioral/sedation, counted once per horse per group (mature, healthy horses; 3X, PE Day 28): 0
- Visual findings ataxia/dragging toes or behavioral/sedation, counted once per horse per group (mature, healthy horses; 3X, PE Day 56): 1
- Visual findings ataxia/dragging toes or behavioral/sedation, counted once per horse per group (mature, healthy horses; 3X, PE Day 84): 0
- Visual findings ataxia/dragging toes or behavioral/sedation, counted once per horse per group (mature, healthy horses; 3X, PE Day 112): 0
- Visual findings ataxia/dragging toes or behavioral/sedation, counted once per horse per group (mature, healthy horses; 3X, PE Day 140): 1
- Visual findings ataxia/dragging toes or behavioral/sedation, counted once per horse per group (mature, healthy horses; 3X, PE Day 168): 0
- Visual findings ataxia/dragging toes or behavioral/sedation, counted once per horse per group (mature, healthy horses; 5X, PE Day 0): 6
- Visual findings ataxia/dragging toes or behavioral/sedation, counted once per horse per group (mature, healthy horses; 5X, PE Day 28): 4
- Visual findings ataxia/dragging toes or behavioral/sedation, counted once per horse per group (mature, healthy horses; 5X, PE Day 56): 3
- Visual findings ataxia/dragging toes or behavioral/sedation, counted once per horse per group (mature, healthy horses; 5X, PE Day 84): 4
- Visual findings ataxia/dragging toes or behavioral/sedation, counted once per horse per group (mature, healthy horses; 5X, PE Day 112): 2
- Visual findings ataxia/dragging toes or behavioral/sedation, counted once per horse per group (mature, healthy horses; 5X, PE Day 140): 2
- Visual findings ataxia/dragging toes or behavioral/sedation, counted once per horse per group (mature, healthy horses; 5X, PE Day 168): 2
- Blood urea nitrogen (BUN) vs Group I (Control) (mature, healthy horses; Day 140 for Group II (1×) and Day 154 for Group III (3×)): significantly higher
- MCH vs Group I (Control) (mature, healthy horses; Group II (1×) and Group IV (5×)): no significant differences
- Direct bilirubin vs Group I (Control) (mature, healthy horses; Group II (1×), overall): significantly lower
- Erythrocytes vs Group I (Control) (mature, healthy horses; Group II (1×), overall): significantly lower
- Hematocrit vs Group I (Control) (mature, healthy horses; Group II (1×), overall): significantly lower
- Hemoglobin vs Group I (Control) (mature, healthy horses; Group II (1×), overall): significantly lower
- MCHC vs Group I (Control) (mature, healthy horses; Group II (1×), Days 14, 70, and 154): significantly higher
- Leukocytes vs Group I (Control), group-by-time (mature, healthy horses; Group II (1×), Days 14 and 154): significantly lower
- Glucose vs Group I (Control) (mature, healthy horses; Group II (1×), Days 28, 42, 56, 70, and 140): significantly lower
- APTT vs Group I (Control) (mature, healthy horses; Group II (1×), Days 56, 140, and 168): significantly higher
- Fibrinogen vs Group I (Control) (mature, healthy horses; Group III (3×), overall): significantly lower
- MCHC vs Group I (Control) (mature, healthy horses; Group III (3×), Day 0): significantly lower
- MCH vs Group I (Control) (mature, healthy horses; Group III (3×), Day 56): significantly higher
- APTT vs Group I (Control) (mature, healthy horses; Group III (3×), Days 28, 56, 98, 140, and 168): significantly higher
- Leukocytes vs Group I (Control), group-by-time (mature, healthy horses; Group III (3×), Days 84, 98, 112, 140, and 168): significantly higher
- Leukocytes vs Group I (Control), group-by-time (mature, healthy horses; Group IV (5×)): no significant differences
- APTT vs Group I (Control) (mature, healthy horses; Group IV (5×), Day 84): significantly lower
- Blood urea nitrogen (BUN) vs Group I (Control) (mature, healthy horses; Group IV (5×), Days 28, 42, 84, and 112): significantly lower
- Glucose vs Group I (Control) (mature, healthy horses; Group IV (5×), Days 28, 84, 140, and 168): significantly lower
- APTT vs Group I (Control) (mature, healthy horses; Group IV (5×), Days 56, 70, and 126): significantly higher
- MCHC vs Group I (Control) (mature, healthy horses; Group IV (5×), Days 98, 112, and 154): significantly higher
- Physical examination findings at and immediately after dosing (mature, healthy horses; Group IV (5×), also recorded in controls, not dose related, not considered treatment related): transient locomotion (ataxia/dragging toes), or neurodepressant type effects (behavioral/sedation)
- Microscopic findings at the injection site(s) (mature, healthy horses; IV jugular once every 7 days for 25 doses, attributed to minor trauma of injection procedure): minimal fibrosis of the dermis or vein, and minimal degeneration and necrosis of the underlying skeletal muscle
- Urinalysis findings (mature, healthy horses; all groups): did not appear to be any indication of abnormal urinalysis findings
- Bone marrow smears (mature, healthy horses; control and test-article treated horses, no dose relationship or correlation with decreased platelet counts on Day 168): low incidence of decreased megakaryocytes
- Leukocytes vs Group I (Control), group-by-sex (mature, healthy horses; female horses in Group III (3×) and Group IV (5×)): significantly higher
- Globulin vs Group I (Control) (mature, healthy horses; females in Group II (1×)): significantly higher
- Albumin vs Group I (Control) (mature, healthy horses; females in Group II (1×) and Group III (3×)): significantly lower
- Sorbitol dehydrogenase vs Group I (Control) (mature, healthy horses; females in Group II (1×) and Group IV (5×)): significantly higher
- Lymphocytes/leukocytes vs control (mature, healthy horses; females, all treatment groups): no significant differences
- Magnesium vs control (mature, healthy horses; females, all treatment groups): no significant difference
- Neutrophils/leukocytes vs control (mature, healthy horses; females, all treatment groups): no significant differences
- Macroscopic findings limited to the injection site (mature, healthy horses; in vivo): no macroscopic findings
- Microscopic findings: mandibular salivary glands, related to test article (mature, healthy horses; males given 1× and 3×, limited number examined): no microscopic findings
- Liver to brain weight ratio (%) compared to control males (mature, healthy horses; males given the 3× dose, p=0.033, small magnitude, no dose response): statistically higher
- Mean liver to body weight ratio (%) compared to control males (mature, healthy horses; males given the 3× dose, p=0.064, small magnitude, no dose response): statistically higher
- Leukocytes vs Group I (Control), group-by-sex (mature, healthy horses; males in Group II (1×)): significantly lower
- Albumin vs Group I (Control) (mature, healthy horses; [4]): significantly higher
- Sorbitol dehydrogenase vs Group I (Control) (mature, healthy horses; [4]): significantly higher
- Globulin vs Group I (Control) (mature, healthy horses; [5]): significantly lower
- Lymphocytes/leukocytes vs Group I (Control) (mature, healthy horses; [5]): significantly higher
- Magnesium vs Group I (Control) (mature, healthy horses; males in Group IV (5×)): significantly lower
- Neutrophils/leukocytes vs Group I (Control) (mature, healthy horses; males in Group IV (5×)): significantly lower
- Testicular changes, relation to dose (mature, healthy horses; most consistent with spontaneous background findings): did not show evidence of a dose response
- Microscopic findings: testes (mature, healthy horses; often with mononuclear cell infiltration and/or Leydig cell pigment accumulation, not in the single control male): Minimal seminiferous tubule degeneration
- Adverse event of abdominal colic (mature, healthy horses; one horse Group II (1×) Day 51, one horse Control Day 54): did not appear to be associated with test article administration
- Macroscopic observations at the end of dosing (mature, healthy horses; previous trauma, infectious diseases, degenerative/aging changes or euthanasia artifact): attributed to spontaneous background alterations
- Fecal analysis findings (mature, healthy horses; two horses in Group III (3×) at Day 83, other groups normal): abnormal intestinal mucosa
